Activity calls are given as the source filed them.
What was measured:
[1] = molecular target: T1, Endoribonuclease toxin MazF (Escherichia coli K-12, UniProt P0AE70); assay: MazF toxin RNase activators, dose response, biochemical, fluorescence, single-stranded RNA substrate, uHTS hits (AID 588481); assay type: functional
T1 sequence (P0AE70 whole entry): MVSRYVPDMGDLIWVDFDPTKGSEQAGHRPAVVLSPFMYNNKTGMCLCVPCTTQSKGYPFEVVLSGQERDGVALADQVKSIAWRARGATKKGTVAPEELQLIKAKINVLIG

[2] = molecular target: Nonstructural protein 1 (Influenza A virus, UniProt Q194T2); assay type: functional, Influenza A virus (A/California/07/2009(H1N1))
Sequence of Nonstructural protein 1 (Q194T2 whole entry): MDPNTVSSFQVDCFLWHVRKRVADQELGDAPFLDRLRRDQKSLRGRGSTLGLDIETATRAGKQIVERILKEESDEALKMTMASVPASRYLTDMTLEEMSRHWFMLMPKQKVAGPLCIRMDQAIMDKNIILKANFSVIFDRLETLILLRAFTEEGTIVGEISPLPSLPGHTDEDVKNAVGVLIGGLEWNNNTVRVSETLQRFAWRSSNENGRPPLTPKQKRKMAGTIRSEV

O=C1C=C(c2c(O)ccc3ccccc23)c2ccccc2C1=O
EC50 [1]: 7.31 µM (active)
IC50 [2]: 46.5 µM (active)

From ChEMBL document CHEMBL1201862, “PubChem BioAssay data set” (2004)
